Key:
MDA-MB-231 cells [1] = experiment: Laminin-based cell invasion assay; details: 1 µM, 24 hours
HPDE cells = experiment: Western blot of cleaved caspase-3 in normal cells; details: concentrations as high as 10 µM; normal pancreatic cells
[2] = system: STAT1 DNA-binding activity in MDA-MB-231 cells; experiment: STAT1 DNA-binding activity in nuclear extracts; details: 24 hours treatment
BdsMC bladder cells = experiment: Apoptosis in normal cells; details: normal cell line
WI-38 lung cells = experiment: Apoptosis in normal cells; details: normal cell line
[3] = system: MDA-MB-231 breast cancer cell line; experiment: Combinatorial effect with doxorubicin on cell viability; details: 100–400 nM doxorubicin with 5000 nM compound; p < 0.05 over either agent alone
[4] = system: STAT3 DNA-binding activity in MDA-MB-231 cells; experiment: STAT3 DNA-binding activity in nuclear extracts; details: 24 hours treatment
[5] = system: STAT3 transcriptional activity in MDA-MB-231 cells; experiment: STAT3-dependent transcriptional luciferase assay; details: 24 hours of treatment
[6] = system: P-STAT3 in PANC-1 pancreatic cancer cells; experiment: Western blot of P-STAT3; details: 2.5 and 5 µM, 24 hours
HMEC cells = experiment: Western blot of cleaved caspase-3 in normal cells; details: concentrations as high as 10 µM; normal breast cells
JAK2 = experiment: HTScan JAK2 Kinase Assay; assay type: biochemical, human; details: 5 µM; over a DMSO control; P<0.05
[7] = system: STAT3 DNA-binding activity in PANC-1 cells; experiment: STAT3 DNA-binding activity in nuclear extracts; details: 24 hours treatment
[8] = system: P-STAT3 in MDA-MB-231 breast cancer cells; experiment: Western blot of P-STAT3; details: 2.5 and 5 µM, 24 hours
MDA-MB-231 cells [9] = experiment: Soft agar colony formation assay; details: MDA-MB-231, soft agar, two weeks

caspase-3 cleavage (HPDE cells) | caspase-3 cleavage (HMEC cells) | reduction in JAK2 kinase activity (JAK2) | Structure (SMILES) | invasive capacity (MDA-MB-231 cells [1]) | STAT1 DNA-binding activity [2] | apoptosis (BdsMC bladder cells) | apoptosis (WI-38 lung cells) | combination effect with doxorubicin on cell viability [3] | STAT3 DNA-binding activity [4] | luciferase activity [5] | levels of P-STAT3 [6] | STAT3 DNA-binding activity [7] | levels of P-STAT3 [8] | reduction of overall colony numbers over that of curcumin (MDA-MB-231 cells [9])
– | – | – | COc1cc(/C=C/C(=O)CC(=O)/C=C/c2ccc(O)c(OC)c2)ccc1O [curcumin, reference compound] | comparatively minimal impact | – | – | – | – | – | – | – | – | – | –
unable to induce caspase-3 cleavage | unable to induce caspase-3 cleavage | approximately 60% | COc1ccc(/C=C/C(=O)C(C)(C)C(=O)/C=C/c2ccc(OC)c(OC)c2)cc1OC [FLLL31] | substantially reduced | slightly enhanced | no evidence of apoptosis | no evidence of apoptosis | synergistic | dropped sharply | reduced luciferase activity in a dose-dependent fashion | effectively reduced | dropped sharply | effectively reduced | approximately 40%

From publication PMC2843552 (Cancer research, 2010)
